Entries after “also recorded” stand apart in the source; their conditions may differ.
Assays:
Format in all cases: cell-based, human
muscarinic receptor = assay: Ex vivo isometric force contraction of muscle strips from transplanted hAGO +SM +ENS in an organ bath
ENS = system: ENS
ENCCs = assay: Expression of BMP ligands in ENCC culture (qRT-PCR); settings: ENCC culture treated with NOG; FIG. 15B
Protocol: (§1) One candidate pathway was BMP signaling, which is known to promote posterior fate in the gastrointestinal junction. Analysis of ENCCs show high levels of expression of both BMP4 and BMP7 (FIG. 15A). To functionally investigate if BMP activity might mediate the ability of ENCCs to promote a Brunner's gland fate, ENCCs were recombined with hAGO at day 6 and then organoids were cultured with the BMP inhibitor Noggin (NOG) from day 6-9, along with RA, which is a component of the normal hAGO protocol. None of the grafts (0 out of 27) had Brunner's gland epithelium following 3 days of Noggin treatment as compared to hAGOs +ENCCs added at day 9 not treated with NOG (5 out of 21 grafts). […]
RNA isolation and quantitative real-time PCR (qRT-PCR): Spheroids and organoids were harvested in RAI Lysis Buffer and β-mercapethanol and stored at −80° C. until total RNA was isolated using NucleoSpin RNA Isolation Kit (Macherey-Nagel) according to manufacturers' instructions. Complementary DNA (cDNA) was reverse transcribed from 116 ng of RNA using a SuperScript VILO cDNA Synthesis Kit (Invitrogen). qRT-PCR was performed using a QuantiTect SYBR Green PCR Kit (Qiagen) in MicroAmp EnduraPlate Optical 96-Well Fast Reaction Plates (Applied Biosystems) and run on a QuantStudio 6 Real-Time PCR Detection System (Applied Biosystems). […]

hAGOs +ENCCs = assay: Brunner's gland epithelium in grafts of hAGOs recombined with ENCCs and transplanted into mice; settings: ENCCs recombined at day 6, Noggin day 6-9 (3 days) along with RA; compared with 5 out of 21 grafts not treated
Protocol: as §1
Recombination and additional spheroid patterning: Single cell suspensions of mesenchymal cells and ENCCs were counted and added to foregut spheroids at an approximate ratio of 1,000 ENCCs and 2,500 mesenchyme cells per spheroid. […]
In vivo transplantation of hAGOs and hFGOs: hAGO, hFGO, hAGO +ENS, hAGO +SM +ENS, hAGO +SM +ENS, and hFGO +SM +ENS were all ectopically transplanted into the kidney capsule of NSG mice. […] Engrafted organoids were harvested 6-15 weeks after transplantation and analyzed for neuroglial, epithelial, and mesenchymal maturation.

With `CC(C[N+](C)(C)C)OC(N)=O` (stereo not drawn) [bethanechol, Carbamyl-β-methylcholine chloride] the “contractility (smooth muscle force contraction), dose response” value (muscarinic receptor; 1 nM to 10 mM at 2 min intervals, tissue strips of transplanted hAGO +SM +ENS, FIG. 4C) was “increased in response to bethanechol in a dose-dependent manner” and the “normalized mean maximal tension” value (muscarinic receptor; bethanechol dose response before scopolamine, normalized to muscle strip mass, n=3, FIG. 4D) was 236.9 g/g.

`CN1[C@@H]2C[C@@H](OC(=O)[C@H](CO)c3ccccc3)C[C@H]1[C@@H]1O[C@@H]12` [scopolamine] was tested, and the “reversal of contractions / muscle relaxation” value (muscarinic receptor) was “contractions were able to be reversed and muscle relaxation induced”.

In the case of `NC1=N[C@H](O)[C@H]2[C@H]3O[C@]4(O)O[C@@H]([C@@H](O)[C@@]2(N1)[C@@H]4O)[C@]3(O)CO` [tetrodotoxin], the “EFS-stimulated contractile activity (change in AUC)” value (ENS) is reported as “abolished the ability of EFS to stimulate contractile activity; also recorded: abrogating EFS-mediated contractions”.

B1: Noggin: BMP inhibitor Noggin (NOG) (protein, UniProt Q13253 28-232, looked up)
Noggin: QHYLHIRPAPSDNLPLVDLIEHPDPIFDPKEKDLNETLLRSLLGGHYDPGFMATSPPEDRPGGGGGAAGGAEDLAELDQLLRQRPSGAMPSEIKGLEFSEGLAQGKKQRLSKKLRRKLQMWLWSQTFCPVLYAWNDLGSRFWPRYVKVGSCFSKRSCSVPEGMVCKPSKSVHLTVLRWRCQRRGGQRCGWIPIQYPIISECKCSC
In the case of B1, the “levels of BMP4 and BMP7 expression” value (ENCCs) is reported as “significantly reduced levels of both BMP4 and 7” and the “grafts with Brunner's gland epithelium” value (hAGOs +ENCCs) is reported as 0 out of 27.

From patent publication US20240318145A1, “STRUCTURALLY COMPLETE ORGANOIDS” (Children's Hospital Medical Center, priority 2021, published 2024)
